Source: patent US9226517B2, “Use of iminocyclitols as inhibitors of bacterial adherence to epithelial cells” (Taihua Shouyue (Hong Kong) International Co Limited, priority 2010, dated 2016)
“And” between values parts separate entries of the source, which are not always exact repeats. Equal entries are not always repeated.

Key:
Streptococcus mutans [1] = experiment: Bacterial agglutination assay; type: cell-based
Method: (§1) Bacteria used in the assay were Escherichia coli, Salmonella tphimurium and Streptococcus mutans, from over night cultures. The bacteria were inoculated in the 100 ml flask with Luria medium. The bacteria were grown for 24 h at 37° C. After incubation, Agar Luria medium plates were inoculated. After 24 h suspensions of each strain were prepared in PBS medium (10^8 CFU/ml). Serial dilutions of the products to be tested, D-fagomine and D-fagomine tartrate (20 ppm, 200 ppm, 2000 ppm) were made. The dilutions were mixed with bacterial suspensions in a 1:1 ratio. After 90 min. at room temperature the suspensions were observed under optical microscope. They were compared with the control culture without any product added.
(§2) Bacteria used in the assay were Escherichia coli, Salmonella tphimurium, Streptococcus mutans, Lactobacillus casei and Bifidobacterium sp., from over night cultures. The bacteria were inoculated in the 100 ml flask with Luria medium. The bacteria were grown for 24 h at 37° C. After incubation, Agar Luria medium plates were inoculated. After 24 h suspensions of each strain were prepared in PBS medium (10^8 CFU/ml). Serial dilutions of the product to be tested, D-fagomine tartrate (10 ppm, 20 ppm, 2000 ppm) were made. The dilutions were mixed with bacterial suspensions in a 1:1 ratio. After 90 min. at room temperature the suspensions were observed under optical microscope. They were compared with the control culture without any product added. The Escherichia coli and Salmonella tphimurium were compared with a positive control culture (mannose 0.05M).

Escherichia coli [2] = experiment: Bacterial agglutination assay; type: cell-based; conditions: for agglutination relative to the corresponding positive control: positive control mannose 0.05M
Method: as §1, §2

Salmonella tphimurium = experiment: Bacterial agglutination assay; type: cell-based; conditions: for agglutination relative to the corresponding positive control: positive control mannose 0.05M
Method: as §1, §2

Salmonella = experiment: Adhesion to mucus (mucosal epitelial cells); type: cell-based
Method: (§3) • Mucus: mucosal epitelial cells • Adhesion to mucus. Protocol Day 1
(§4) The bacteria was inoculated in the tube, with 3 ml Luria medium. The bacteria were grown for 24 h at 37° C. The tube was incubated overnight (1 10^8-1 10^9 UCF/ml).
(§5) The mucus (1 ml) is defrosted at room temperature. PBS medium (100 ml) was prepared. The defrosted mucus was centrifuged at 8000 rpm for 10 minutes. The mucus (1 ml) was transferred to an aliquot with sterile PBS (99 ml) (1:100). Each well is inoculated with 2.5 ml from the mixture and the plate is kept in the fridge (4° C.) overnight.
(§6) The plate was taken out from the fridge. 2 ml was extracted from each well. PBS (1 ml) was added, then was extracted, at the end there was 0.5 ml in the well.
(§7) The tubes that were grown overnight were diluted (1 10^7 UCF/ml).
(§8) The final volume in each well was: PBS 0.5 ml plus bacterial suspension 0.5 ml plus D-fagomine 0.5 ml (or PBS in control case).
(§9) Two plates were prepared (duplicated strains). Product concentration in the wells (10 ppm, 20 ppm, 40 pppm). Mannose concentration 0.05M (control well).
(§10) The wells were inoculated and the plates were incubated at 37° C. for 90 minutes.
(§11) After the 90 minutes, the supernatant of each well (10 μl) were observed under optical microscope.
(§12) It was added 1 ml of each well in eppendorfs. The eppendords were kept on the fridge. Two wash were made with PBS. The wells washed of the same strain were recoleted in a falcon tube and they were kept at 4° C. PBS (1 ml) was added in each well and the plates were inoculated with 100 μl of each tubes at the adecuated dilutions.
(§13) The plates were recounted

Escherichia coli [3] = experiment: Adhesion to mucus (mucosal epitelial cells); type: cell-based; conditions: for Bacteria in supernatant: duplicates 1 and 2
Method: as §3, §4, §5, §6, §7, §8, §9, §10, §11, §12, §13

Streptococcus mutans [4] = experiment: Glass surface adherence assay; type: cell-based; conditions: for G/MG (Glass/Mannose glass): vs mannose 0.05 M
Method: Glass surface adherence assay was performed. The bacterium used in the assay was Streptococcus mutans from over night cultures (1 10^10 UCF/ml). The bacterium was grown for 18 h at 37° C. in PBS medium. The bacteria from the overnight culture (0.25 ml) were grown for 18 h at […] in a glass dish with the specific medium (0.5 ml). After the 18 h, 0.25 ml of D-fagomine (10 ppm, 20 ppm and 40 ppm) was added. In the control plate was added only PBS. After 90 min. the cells were transfered (0.5 ml) to a falcon tube, then were washed two times with PBS (0.5 ml each time). The wash of each bacteria was collected in a falcon tube and was kept at 4° C. The cells (100 μl) were seeded in the plates in TSA medium. The cells adhered were scrapped. In each well, it was added 0.5 ml of sterile PBS. The plaques with 100 μl were inoculated. The plaques were counted.

[5] = Castillo et al., Organic Letter 2006; cited from earlier work
Bifidobacterium = experiment: Adhesion to mucus; type: cell-based
Method: (§14) • Adhesion to mucus. Protocol Day 1
(§15) The bacteria was inoculated in the tube with 3 ml Luria medium. The bacteria were grown for 24 h at 37° C. The tube was incubated overnight (1 10^7-1 10^8 UCF/ml).
(§16) The mucus (1 ml) is defrosted at room temperature. 100 ml of PBS medium was prepared. The defrosted mucus (1 ml) was centrifuged at 8000 rpm for 10 minutes. The mucus (1 ml) was transferred to an aliquot with sterile PBS (99 ml). Each well is inoculated with 2.5 ml from the mixture and the plate is kept in the fridge (4° C.) overnight.
(§17) The plate was taken out from the fridge an the wash was made. 2 ml was extracted from each well. PBS (1 ml) was added, then was extracted, at the end there was 0.5 ml in the well.
(§18) The tubes that were grown overnight, were diluted (1 10^7 UCF/ml).
(§19) The final volume in each well was: PBS 0.5 ml plus bacterial suspension 0.5 ml plus D-fagomine 0.5 ml (or PBS in control case). It was prepared 2 plates (duplicated strains). Product concentration in the wells (10 ppm, 20 ppm, 40 pppm). Mannose concentration 0.05M (control well). The wells were inoculated and the plates were incubated at 37° C. for 90 minutes. After the 90 minutes, the supernatant of each well (10 μl) were observed under optical microscope. It was added 1 ml of each well in eppendorfs. The eppendords were kept on the fridge. Two wash were made with PBS. The wells washes of the same strain were recoleted in a falcon tube and they were kept at 4° C. PBS (1 ml) was added in each well and the plates were inoculated with 100 μl of each tubes at the adecuated dilutions.
as §13

[6] = test system: Lactobacillus acidophilus; experiment: Adhesion to mucus; type: cell-based
Method: as §14, §15, §16, §17, §18, §19, §13

S. mutans = conditions: Islam et al. 2008; compound isolated from M. alba; cited from earlier work
Lactobacillus casei = experiment: Bacterial agglutination assay; type: cell-based; conditions: Example 2; 90 min room temperature
Method: as §2

Bifidobacterium sp. = experiment: Bacterial agglutination assay; type: cell-based; conditions: Example 2; 90 min room temperature
Method: as §2

[7] = Example 1, 20 ppm, 200 ppm and 2000 ppm, 90 min room temperature, vs control culture
[8] = D-fagomine 40 ppm, duplicates 1 and 2
[9] = independently of the D-fagomine concentration (10, 20, 40 ppm)
[10] = Example 2, 20 ppm and 200 ppm, 90 min room temperature

OC[C@H]1NCC[C@@H](O)[C@@H]1O [D-fagomine, (2R, 3R, 4R)-2-hydroxymethylpiperidine-3,4-diol]
agglutination of the cells (optical microscope) (Streptococcus mutans [1]; [7]): agglutinated
agglutination of the cells (optical microscope) (Escherichia coli [2]; [7]): agglutinated
agglutination of the cells (optical microscope) (Salmonella tphimurium; [7]): agglutinated
Bacteria in supernatant (Salmonella; D-fagomine 10 ppm, duplicates 1 and 2): 78.4% and 91.8%
Bacteria in supernatant (Salmonella; D-fagomine 20 ppm, duplicates 1 and 2): 98.2% and 95.5%
Bacteria in supernatant (Salmonella; [8]): 98.2% and 84.1%
Supernatant/mucus (Salmonella; [8]): 5.27 UCF/ml
agglutination of microorganisms with the mucus (Salmonella; [9]): not agglutinated with the mucus
Bacteria in supernatant (Escherichia coli [3]; D-fagomine 10 ppm): 94.5% and 95.1%
Bacteria in supernatant (Escherichia coli [3]; D-fagomine 20 ppm): 96.3% and 99.0%
Bacteria in supernatant (Escherichia coli [3]; D-fagomine 40 ppm): 99.2% and 98.6%
agglutination of microorganisms with the mucus (Escherichia coli [3]; [9]): not agglutinated with the mucus
antiadherence activity in respect of the control (Streptococcus mutans [4]; 10 ppm, 20 ppm and 40 ppm): has antiadherence activity
PG/CG (Product glass/Control glass without product) (Streptococcus mutans [4]; D-fagomine 10 ppm): 1.60
G/MG (Glass/Mannose glass) (Streptococcus mutans [4]; D-fagomine 10 ppm): 1.60
G/MG (Glass/Mannose glass) (Streptococcus mutans [4]; D-fagomine 20 ppm): 1.35
antimicrobial activity [5]: do not show antimicrobial activity
Product M/Control M (Bifidobacterium; D-fagomine 20 ppm): 1.14
Product M/Control M (Bifidobacterium; D-fagomine 40 ppm): 3.50
M/Manose M ([6]; D-fagomine 10 ppm): 1.31
Product M/Control M ([6]; D-fagomine 10 ppm): 5.58
M/Manose M ([6]; D-fagomine 20 ppm): 1.31
Product M/Control M ([6]; D-fagomine 20 ppm): 5.58
Product M/Control M ([6]; D-fagomine 40 ppm): 3.94

OC[C@H]1NC[C@H](O)[C@@H](O)[C@@H]1O [1-deoxynojirimycin]
anti-microbial activity against S. mutans (S. mutans): anti-microbial activity

O=C(O)C(O)C(O)C(=O)O.OC[C@H]1NCC[C@@H](O)[C@@H]1O [D-fagomine tartrate]
agglutination of the cells (optical microscope) (Streptococcus mutans [1]; [7]): agglutinated
agglutination of the cells (optical microscope) (Streptococcus mutans [1]; Example 2, 10 ppm): not at 10 ppm
agglutination of the cells (optical microscope) (Streptococcus mutans [1]; [10]): agglutinated
agglutination relative to the corresponding positive control (Escherichia coli [2]; 20 ppm): about 60%
agglutination relative to the corresponding positive control (Escherichia coli [2]; 200 ppm): about 70%
agglutination of the cells (optical microscope) (Escherichia coli [2]; [7]): agglutinated
agglutination of the cells (optical microscope) (Escherichia coli [2]; Example 2, 10 ppm): not at 10 ppm
agglutination of the cells (optical microscope) (Escherichia coli [2]; [10]): agglutinated
agglutination relative to the corresponding positive control (Salmonella tphimurium; 20 ppm): about 60%
agglutination relative to the corresponding positive control (Salmonella tphimurium; 200 ppm): about 70%
agglutination of the cells (optical microscope) (Salmonella tphimurium; [7]): agglutinated
agglutination of the cells (optical microscope) (Salmonella tphimurium; Example 2, 10 ppm): not at 10 ppm
agglutination of the cells (optical microscope) (Salmonella tphimurium; [10]): agglutinated
agglutination of the cells (optical microscope) (Lactobacillus casei): not agglutinated
agglutination of the cells (optical microscope) (Bifidobacterium sp.): not agglutinated
